According to patent publication US6482609B1, “Isolated human EDG-4 receptor and polynucletide encoding said receptor” (priority 1997, dated 2002):

Experiments:
HeLa cells = test: IL-8 ELISA on supernatants of treated HeLa cells; type: cell-based, human; settings: for PTX sensitivity of the IL-8 response: PTX 50 ng/ml overnight pre-treatment; for IL-8 induction: concentration series up to 10 μM, 6 hours
Experimental: Procedure #1 For HeLa Cells
Cells: HeLa (adenocarcinoma, human)
Media: DMEM/F12+10%FBS adherent
1) Cells were seeded at 0.2×10^6 cells/well in 6-well plates.
2) 1.5 ml 0.5% FBS media was added to each well.
1) Made up all required solutions in 0.5% FBS media (control). Handling of […] for use in NF-κB experiments requires that sonication, commonly used to resuspend LPA, not be done; NF-κB may be activated by lipid peroxides created through vigorous frothing.
3) 1.5 ml appropriate treatments were added to each well.
5) After the specified time cell supernatants were collected into 1.5 ml eppendorf tubes, spun down at 14000 rpm for 5 minutes and stored at −20° C. for later ELISA determination.
D. Detection of Interleukin-8 (IL-8) using an IL-8 ELISA (Enzyme-Linked InimunoSorbent Assay).
1) The Quantikine Human IL-8 ImmunoAssay Kit was obtained from R&D Systems (Cat. D8050).
4) The assay procedure was followed as recommended in the kit for cell culture supernatant samples.
5) ELISA was performed on 50 μl samples of culture supernatant and duplicate samples were measured for each well. Each treatment was performed on triplicate wells.
6) Plates were read on UVmax kinetic microplate reader (Molecular Devices), set to 450 nm and correction set to 575 nm, using Wsoftmax software version 2.34.
Procedure #2 For HeLa Cells
1) Cells were seeded at 2.5×10^4 cells/well in 24-well plates.
2) 0.5 ml 0.5% FBS media was added to all wells not requiring PTX pre-treatment.
3) For wells requiring PTX; 0.5 ml 0.5% FBS media containing 50 ng/ml PTX (1 volume PTX (RBI Cat. P140): 1 volume DTT, incubate 37° C. for 30 minutes then dilute to 50 ng/ml) was added.
Follow Procedure #2 For HeLa Cells with the following exceptions:
Concentrations for LPC, LPE, LPG, LPS, sphingosine and SM used were 10, 50, 100, 1000, and 5000 nM. Concentrations for LPI, lyso-PAF and lysosulfatide used were 0.3 and 3 μM.
2) A 30 minute pre-treatment at 37° C./5%CO2 of 0.5 ml of suramin was done to all wells except control, any PTX and ET-18-OCH3 wells before step 3 of section C.

HL-60 cells = test: Cytotoxicity (cell viability) in HL-60 cells; type: cell-based, human
Experimental: For this purpose, an experiment was conducted to measure cytotoxicity in parallel with IL-8 response. […] Therefore, IL-8 production had to be robust to be observed at 6 hr, while even slight or delayed toxicity would be seen as a loss of viability at 24 hr.

human EDG-4 = human EDG-4 (Homo sapiens, UniProt O95136); test: SRE luciferase reporter in 293-EBNA cells, human EDG-4; type: cell-based; settings: for Agonist character at EDG-4: conclusion from the reporter assay of Table 2; for Rank (EMax): rank of efficacy among compounds tested
Experimental: (§1) NE-κB activates gene expression by binding to specific DNA sequences found in the promoters of genes regulated by this inflammation-related transcription factor. […] The SRE reporter was identical to the NF-κB reporter, except that the NF-κB binding sites were replaced with 2 SRE sites. The new reporter was called 2XSREtk-p4Luc-zeo.
(§2) The protocol described in Example 11 for Assay 1 was followed except for the following changes:
(§3) 2) SRE Cotransfection: 0.5 μg of 2XSREtk-p4Luc-zeo reporter DNA and 3.5 μg pcDNA3, EDG-1, EDG-3 (pC3-hE3HP2, different from the clone used in Assay 2 of Example 11) or the newly cloned human EDG-4 (pC3-hedg4#36); NF-κB Cotransfection: 2 μg 6XNFκBtk-p4Luc-zeo reporter DNA and 2.0 μg pcDNA3, EDG-1, EDG-3 (pC3-hE3HP2), or EDG-4 (pC3-hedg4#36). Expression plasmid and reporter plasmid DNA samples were combined and diluted in 750 μl of DMEM/F12 (serum free media) and 20 μl Plus Reagent (Lipofectamine Plus Kit, Life Technologies Cat. 10964-013), and incubated at room temperature for 15 min.
(§4) 1) Media was removed and cells treated with compounds diluted in DMEM/F12 media.
(§5) 2) The cells were treated for 6 hours.
3) Luciferase assay was performed.
(§6) Transfection was accomplished using the Lipofectamine Plus kit (Life Technologies, Cat. 10964-013), using the manufacturer's recommended conditions.
Transfection of EDG-4, expression, pretreatment and treatment of 293-EBNA cells expressing recombinant human EDG-4 was carried out essentially as described in “Example 11. […] Results were tabulated in Microsoft Excel, and analyzed with GraphPad Prism software. […] The luciferase response was expressed as fold response, after subtracting any endogenous response in pcDNA3-transfected cells at a given concentration of compound.

[1] = system: 293-EBNA cells transfected with empty expression vector pcDNA3; test: SRE luciferase reporter in 293-EBNA cells, empty vector pcDNA3; type: cell-based
Experimental: as §1, §2, §3, §4, §5, §6
293-EBNA cells were grown, lipofected in monolayer cultures, and pretreated as described above for Example 11, assay #1, except that NF-κB and AP-1 reporter-transfected cells were pretreated for 6 hr in medium containing 0.5% FBS, then treated overnight in the same medium with or without 10 μM LPA.

EDG-1 [2] = target: T1, EDG-1 (Homo sapiens, UniProt P21453); test: Calcium microfluorimetry (fura-2) in 293-EBNA cells, EDG-1; type: cell-based; settings: 2 and 10 μM, preliminary data
T1 sequence (P21453 whole entry, the tested form may be a part): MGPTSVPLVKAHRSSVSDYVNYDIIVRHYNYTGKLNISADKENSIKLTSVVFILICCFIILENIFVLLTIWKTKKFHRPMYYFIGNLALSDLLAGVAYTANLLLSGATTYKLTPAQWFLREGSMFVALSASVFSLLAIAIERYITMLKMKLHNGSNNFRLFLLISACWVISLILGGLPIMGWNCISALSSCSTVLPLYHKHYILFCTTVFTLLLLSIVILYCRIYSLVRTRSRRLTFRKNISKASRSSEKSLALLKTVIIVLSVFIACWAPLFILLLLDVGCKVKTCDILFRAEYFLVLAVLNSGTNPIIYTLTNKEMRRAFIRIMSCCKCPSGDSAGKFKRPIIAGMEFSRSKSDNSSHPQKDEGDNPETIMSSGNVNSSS
Experimental: (§7) Transfections were carried out with EDG receptors in 293-EBNA cells as described above, except that no reporter gene vector was included in the DNA mix. Two days after transfection, cells were harvested by trypsinization and plated at a density of 200,000 cells onto poly-D-lysine-coated coverslips in 100 μl of medium containing 0.5% FBS. After briefly allowing cell attachment to take place, 2 ml of medium without FBS was added and the cells were incubated overnight. The next day, cells were loaded with 5 μM fura-2 AM ester (Molecular Probes) for 60 min at RT, then washed and used for calcium microfluorimetry. […] Treatments were applied using a gravity-fed perfusion apparatus. Fluorescence emission was continuously monitored and recorded with PTI 2.060a software and analyzed with Sigma Plot software. Intracellular calcium concentrations were calculated by interpolation on a ratiometric fluorescence curve generated from fura-2 fluorescence in a calcium dilution series.

EDG-7 = test: Calcium microfluorimetry in 293-EBNA cells, EDG-7; type: cell-based; settings: 2 and 10 μM, preliminary data
Experimental: as §7

EDG-1 [3] = target: T1, EDG-1; test: NF-κB luciferase reporter in 293-EBNA cells, EDG-1; type: cell-based; parameters: expressed in transfected cells; host or cells: 293-EBNA; settings: 3 μM, 6 hours
Experimental: 3) 30 μl Lipofectamine Reagent (Lipofectamine Plus Kit) was diluted in 750 μl DMEM/F12. The diluted Lipofectamine was then combined with the DNA/Plus mixture and incubated at room temperature for 15 min. […] 2) Transfected cells were harvested by trypsinization and 50,000 cells per well were plated in 96-well Blackview plates coated with poly D-lysine (Becton Dickinson Labware, Cat. 40640). No cells were plated in the outside wells of the 96-well plate. […] 1) Media was removed and cells treated with compounds diluted in DMEM/F12 media. […] 2) The cells were treated for 6 hours. 3) Luciferase assay was performed.

Row | Structure (SMILES) | IL-8 production at 0.3 μM (HeLa cells; 0.3 μM, 6 hr) | IL-8 response (HeLa cells; 1 and 10 μM, 1, 6 or 24 hours) | PTX sensitivity of the IL-8 response (HeLa cells) | IL-8 induction (HeLa cells) | Lowest concentration that reliably induces IL-8 (HeLa cells; repeated experiments) | Concentration at which toxicity begins (HL-60 cells) [µM] | Agonist character at EDG-4 (human EDG-4) | Rank (EMax) (human EDG-4) | SRE response in control cotransfection ([1]; 3 μM, 6 hours, Assay #3) | Qualitative calcium response (EDG-1 [2]) | Qualitative calcium response (EDG-7) | Luciferase activity (NF-κB reporter) (EDG-1 [3]) | EC50 (human EDG-4; 293-EBNA expressing human EDG-4, luciferase after 6 hr, pcDNA3 response subtracted) [nM] | Induction of the SRE reporter gene (human EDG-4; pC3-hedg4#36, 3 μM SPC, 6 hr, Example 15A) [fold] | EMax (Percent) (human EDG-4; relative efficacy, 6 hr) [%] | Induction of the SRE reporter, control ([1]; 3 μM SPC, 6 hr, Example 15A)
1 | CCCCCCCCCCCCC/C=C/[C@@H](O)[C@@H](N)COP(=O)(O)O [S1P, sphingosine-1-phosphate] | near plateau values | time- and concentration-dependent IL-8 response | PTX-sensitive | induce IL-8 in HeLa cells in a concentration-dependent manner | about 30 nM | 10 | full agonists | 2 | about 1.5 fold | None within 20 min | None within 20 min | no increase in luciferase activity |  |  |  | 
2 | CCCCCCCCCCCCC/C=C/[C@@H](O)[C@@H](N)COP(=O)([O-])OCC[N+](C)(C)C [SPC, sphingosylphosphorylcholine] |  |  | PTX-sensitive | induce IL-8 in HeLa cells in a concentration-dependent manner |  |  | full agonists | 1 |  |  |  |  | 880 | 26.3 | 100 | about 2.5 fold
